Test results reported in patent US9066516B2, “Uses of thaxtomin and thaxtomin compositions as herbicides” (priority 2008, dated 2015).

Columns and labels:
Rice (variety M209) = assay: Field study on rice, yield (Example 6); type: in vivo; conditions: Thaxtomin A 180 g/acre
Protocol: The efficacy of thaxtomin A derived from a liquid culture of S. acidiscabies is tested in a field study on rice using 4.9 sq-ft plots surrounded by a metal ring. Treatments with either thaxtomin A or thaxtomin A in combination with lemongrass oil (formulated as GreenMatch EX) or cyhalofop (formulated as Clincher CA) were done using a hand-held sprayer with a water volume corresponding to 57 gallons per acre. Rice (variety M209) was grown until maturity and harvested by hand for yield and weed count assessment. Results of yield (kg/ha), and numbers of redstem, small-flower umbrella sedge, and sprangletop in each plot are presented in Table 3 below.

crabgrass = assay: Greenhouse synergy test MBI-005 + field crop herbicides (Example 11); type: in vivo; conditions: 14 days
Protocol: […] other herbicides commonly used for field crops, glyphosate, glufosinate, synthetic version of bialaphos, and mesotrione were also tested for synergy with MBI-005 on crabgrass and ragweed.
There were 3 replicates per treatment which were sprayed with approximately ⅔ ml per replicate. The treatments were completely randomized and kept in a greenhouse at 25° C. The efficacy was rated at 7 and 14 days post treatment.

[1] = tested on: Crabgrass (Digitaria sanguinalis); assay: Pre-emergence test of MBI-005, lab & field (Example 12); type: in vivo; conditions: pre-emergent; also: ranges in brackets are in %
Protocol: (§1) To further describe the spectrum of pre-emergence activity, tests were conducted in laboratory and field conditions. In laboratory testing, 35 seeds were placed on a ring of blotter paper inside a 3 cm petri dish and supplied with 4 ml of MBI-005 (≦0.1 mg MBI-005/ml). Water was used as a negative control and oryzalin applied as a positive control. Petri dishes were randomly placed in a growth room at 25° C. and 50% RH. Treatments were replicated three times and germinated seeds were counted 7 and 14 days after application; water was added as necessary to maintain moisture levels inside each petri dish.
(§2) In field testing, field soil containing weed seeds were treated with 38.2 L MBI-005/ha at a spray volume of 280 L/ha using a CO2 sprayer with flat fan nozzles. Treatments, including water as the negative control and Gallery as the positive control, were replicated four times and applied twice at a four week interval. Treatments were evaluated visually as % cover and above-ground fresh weights per container were taken.

Bluegrass (Poa annua) = assay: as above; type: in vivo; conditions: pre-emergent; also: ranges in brackets are in %
Protocol: as §1, §2

barnyard grass [2] = assay: Post-emergent MBI-005 + rice herbicides on barnyard grass (Example 18); type: in vivo; conditions: 14 days
Protocol: Ten seedlings in 2.5 cm square pots containing plant growth mix were sprayed to full coverage using a hand sprayer. Negative controls were sprayed with water. Pots were randomly placed in a growth room at 25° C. and 50% RH, and watered as necessary. Treatments were replicated three times and evaluated at 7 and 14 days for visual % damage, with 0% indicating no damage and 100% indicating plant death.
Synergistic effect were noted between MBI-005 and all three rice herbicides, 14 days after treatment. Synergy was calculated as the ratio of observed (E) to expected (E/Ee) percent control using Colby's formula.

[3] = tested on: wheat (Triticum aestivum var. PR1404); assay: Pot study, phytotoxicity on wheat (Example 2); type: in vivo; conditions: 0.5 and 1.0 mg/mL, 7, 14 and 21 days after treatment
Protocol: A pot study is conducted to test the phytotoxicity of thaxtomin A on corn (Zea mays var. Early Sunglow) and wheat (Triticum aestivum var. PR1404). To confirm the activity on broadleaf weeds, pigweed (Amaranthus sp.) is planted in the same pot with either three corn or five wheat seeds, and sprayed simultaneously with the cereal test plants. The less than 3-inch tall plants grown under growth lights (12-h light/12-h dark) at 28° C. are sprayed with thaxtomin A solutions derived from a liquid culture of S. acidiscabies containing 0.5, and 1.0 mg thaxtomin A per mL of solvent (4% ethanol and 0.2% non-ionic surfactant). A solution of 4% ethanol +0.2% non-ionic surfactant without thaxtomin A is used as a control treatment. Each treatment is conducted in three replicates. Treated plants are kept at 28° C. under growth lights and observed at three time points—7, 14 and 21 days after treatment—for visual symptoms of phytotoxicity on corn and wheat and % control of pigweed.

[4] = tested on: Nightshade, Black—Solanum nigrum; assay: Greenhouse weed control by S. acidiscabies extract (Example 4); type: in vivo; conditions: 0.5 mg/mL
Protocol: (§3) A strain of S. acidiscabies (ATCC-49003) is grown in oat bran broth for 5 days (25° C., 200 rpm). The whole cell broth with thaxtomin A is extracted using XAD resin. The dried crude extract was resuspended in 4% ethanol and 0.02% non-ionic surfactant at a concentration of 10 mg/mL, and the solutions with two different concentrations of thaxtomin A (0.5 and 1.0 mg/mL) are tested the following broadleaf weed species:
(§4) All plant species are tested in 4″×4″ plastic pots in three replicates. The untreated control plants are sprayed with the carrier solution (4% Ethanol, 0.02% glycosperse) and the positive control plants with Roundup at a rate corresponding to 1 fl. oz/acre. Treated plants are kept in a greenhouse under 12 h light/12 h dark conditions.

[5] = tested on: Lambsquarter—Chenopodium album; assay: as above; type: in vivo; conditions: Common lambsquarter; 0.5 mg/mL
Protocol: as §3, §4

[6] = tested on: mono and dicotyledonous seedlings; conditions: cited from earlier work
grass species = assay: Greenhouse test on grass species (Example 4); type: in vivo; conditions: 0.5 or 1.0 mg/mL thaxtomin A
Protocol: as §3
and on the following grass weed species:
as §4

[7] = tested on: corn plants (Zea mays var. Sunglow); assay: Pot study, phytotoxicity on corn (Example 1); type: in vivo; conditions: spray 0.125-1.0 mg thaxtomin A/mL, three weeks after treatment
Protocol: In a pot study test in greenhouse conditions, 6-inch corn plants (Zea mays var. Sunglow) were sprayed with increasing concentrations of thaxtomin A mixed in a carrier 4% ethanol, 0.02% polysorbate 60 POE (20) sorbitan monostearate solution. The spraying solutions contained 0.125, 0.25, 0.5 and 1.0 mg thaxtomin A/mL, and the plants are sprayed until total coverage. Each treatment was done in three replicates, and a control solution consists of water with 4% ethanol and 0.02% polysorbate 60 POE (20) sorbitan monostearate as a surfactant. Prior to and after treatments, plants are grown in a greenhouse under artificial lights (12-h light/dark cycle) at 25° C.
Plants are evaluated in one-week intervals starting at 7 days after treatment.

barnyard grass [8] = assay: Greenhouse spray test bialaphos + MBI-005 (Example 10); type: in vivo
Protocol: The MBI-005 and bialaphos were prepared at various concentrations either as single ingredients or in combination with bialaphos. The treatments were applied at approximately ⅔ ml per replicate with a hand-help spray nozzle to barnyard grass or sedge. There were 3 replicates per treatment which were randomized after spray and were kept in a greenhouse at 25° C. for evaluation of phytotoxicity (% control).

Structure (SMILES): CN1C(=O)[C@](O)(Cc2cccc(O)c2)N(C)C(=O)[C@@H]1Cc1c[nH]c2cccc([N+](=O)[O-])c12 [thaxtomin A]
- Yield (kg/ha) (Rice (variety M209); listed as Thaxtomin A): 7876b kg/ha
- Yield (kg/ha) (Rice (variety M209); listed as thaxtomin): no effect
- % Control MBI-005 (crabgrass; MBI-005 0.125 mg/mL (glufosinate line)): 20.0%
- % Control MBI-005 (crabgrass; MBI-005 0.125 mg/mL (glyphosate line)): 28.3%
- Rating at 0.1 mg/ml (Reduction of Germination) [1]: ++++ (95-100)
- Rating at 0.1 mg/ml (Reduction of Germination) (Bluegrass (Poa annua)): ++++ (95-100)
- % Control MBI-005 (barnyard grass [2]; MBI-005 12.5% of the label rate (Penoxsulam line)): 17.5%
- % Control MBI-005 (barnyard grass [2]; MBI-005 25% of the label rate (Bispyribac-sodium line)): 41.7%
- symptoms of phytotoxicity [3]: no symptoms of phytotoxicity are observed
- stunting [4]: severe stunting
- stunting [5]: severe stunting
- concentration causing cell swelling, necrosis and growth inhibition [6]: less than 1 uM
- adverse effects on grass species (grass species): no adverse effects are observed
- phytotoxicity [7]: no phytotoxicity is observed
- % Control (14 days) (barnyard grass [8]; Table 6, MBI-005 0.25 mg/L): 1.3 ab %
- % Control (14 days) (barnyard grass [8]; Table 7, MBI-005 0.25 mg/mL): 6.7 bc %
- % Control (7 days) (barnyard grass [8]; Table 8, MBI-005 0.38 mg/mL): 6.7 ab %
- % Control (14 days) (barnyard grass [8]; Table 8, MBI-005 0.38 mg/mL): 21.7 b %
